From patent US12527810B2, “Pharmaceutical composition, methods for treating and uses thereof” (Boehringer Ingelheim International GmbH, priority 2009, dated 2026)
Blank lines part the entries; values can stand above or below the compound they belong to.

Columns and labels:
[1] = particle size distribution measurement by laser diffraction; type: physicochemical; conditions: milled active substance
From the text: The value X90 refers to the 90% value of the volume distribution measured using a laser diffractometer. In other words, for the purposes of the present invention, the X90 value denotes the particle size below which 90% of the quantity of particles is found based on the volume distribution. Analogously the value X50 refers to the 50% value (median) of the volume distribution measured using a laser diffractometer. In other words, for the purposes of the present invention, the X50 value denotes the particle size below which 50% of the quantity of particles is found based on the volume distribution. Analogously the value X10 refers to the 10% value of the volume distribution measured using a laser diffractometer. In other words, for the purposes of the present invention, the X10 value denotes the particle size below which 10% of the quantity of particles is found based on the volume distribution.
Preferably all X90, X50, X10 values hereinbefore and hereinafter are by volume and determined by laser-diffraction method, in particular low angle laser light scattering, i.e. Fraunhofer diffraction. A preferred test is described in the experimental section. The laser diffraction method is sensitive to the volume of a particle and provides a volume-average particle size, which is equivalent to the weight-average particle size if the density is constant. The skilled artesian knows that the results of the particle size distribution determination by one technique can be correlated with that from another technique, for example on an empirical basis by routine experimentation. Alternatively the particle size distribution in the pharmaceutical composition or dosage form can be determined by microscopy, in particular electron microscopy or scanning electron microscopy.
Particle size distribution measurement is performed for example via light scattering or laser diffraction technique. To determine the particle size the powder is fed into a laser diffraction spectrometer for example by means of a dispersing unit. The test method is described below in detail: • Equipment: Laser Diffraction Spectrometer Sympatec HELOS Particle Sizer. • Lens: R31 (0.5/0.9 μm-175 μm) • Sample Dispersing Unit: Dry disperser RODOS/M • Vacuum: Nilfisk • Feeder: ASPIROS • Feed Velocity: 60.00 mm/s • Primary pressure: 2.00 bar • Injector depression: maximize (mbar)2 • Reference Measurement: 10 seconds • Cycle Time: 100 msec • Trigger Conditions: Start 0.0 seconds after optical concentration ≥1% valid always • Stop after 5.0 seconds optical concentration ≤1% or after 30 seconds real time • Optical Concentration: Approximately range 3-12% • Evaluation: HRLD • Sample Size: Approximately 100 mg • Number of measurements: 2 (duplicate)
The instrument is set up according to the manufacturer's recommendation and using the manufacturer provided software. The sample container is thoroughly mixed and tumbled prior to removing a portion of the sample to ensure that a representative sample is tested. Duplicate samples are prepared by using a spatula to transfer approximately 100 mg of a sample into the ASPIROS glass vials and cap the vials. The capped cials are placed into the feeder.

[2] = total body fat content (FoodScan NIR) in cafeteria-diet obese female Wistar rats; type: in vivo, rat; conditions: 10 mg/kg orally once daily, end of study Day 34, p<0.05
Procedure: All experimental procedures concerning the use of laboratory animals were carried out under a Home Office Certificate of Designation. An animal model of obesity was used to study the effect of the compound (I.9) on body weight and total body fat content. For this, female Wistar rats were made obese by exposure to a simplified cafeteria diet containing high fat chow, chocolate and ground peanuts for approximately 24 weeks. Following the induction of obesity, rats were given vehicle (0.5% aqueous hydroxyethyl-cellulose) for 7 days and then dosed orally once daily with either vehicle or 3 mg/kg or 10 mg/kg compound (I.9) for 28 days. […] Results are means (adjusted for differences between the body weights of the different treatment groups at baseline (Day 1))±SEM (calculated from the residuals of the statistical model), n=10. […] Body weight data was analysed by analysis of covariance with body weights on Day 1 as covariate. […]
At the end of the study on Day 34 (24 hours after the last treatment on Day 33) all rats were terminated, the body exsanguinated and the following tissues removed: the caudate liver lobe, the pancreas, the left kidney and one soleus muscle. Body composition (body fat, protein and water) was determined using the FoodScan NIR (near infra-red) meat analyser (Foss UK). […] Standard errors of the mean (SEM) are calculated from the residuals of the statistical model. […]

[3] = body weight in cafeteria-diet obese female Wistar rats; type: in vivo, rat; conditions: 28 days
Procedure: All experimental procedures concerning the use of laboratory animals were carried out under a Home Office Certificate of Designation. An animal model of obesity was used to study the effect of the compound (I.9) on body weight and total body fat content. For this, female Wistar rats were made obese by exposure to a simplified cafeteria diet containing high fat chow, chocolate and ground peanuts for approximately 24 weeks. Following the induction of obesity, rats were given vehicle (0.5% aqueous hydroxyethyl-cellulose) for 7 days and then dosed orally once daily with either vehicle or 3 mg/kg or 10 mg/kg compound (I.9) for 28 days. For the duration of the study rats were maintained on the cafeteria diet. Therein “Cpd A” denotes the glucopyranosyl-substituted benzene derivative (I.9) at a dose of 3 mg/kg or 10 mg/kg. Results are means (adjusted for differences between the body weights of the different treatment groups at baseline (Day 1))±SEM (calculated from the residuals of the statistical model), n=10. After 28 day daily oral treatment with the compound (I.9) a reduced body weight compared to the vehicle-treated control group was observed. Body weight data was analysed by analysis of covariance with body weights on Day 1 as covariate. […]

[4] = system: serum uric acid; test: twelve week study of serum uric acid levels in patients with manifest type 2 diabetes mellitus; type: in vivo, human; conditions: type 2 diabetes patients; for serum uric acid level, 12 weeks: after 12 weeks
Procedure: In a twelve week study of patients with manifest type 2 diabetes mellitus serum uric acid levels were measured at baseline and every 4 weeks in patients randomized to an administration of the compound (I.9) of 5 mg, 10 mg, or 25 mg or placebo or metformin 2000 mg, daily for 12 weeks.

[5] = system: blood glucose; test: oral glucose tolerance test in ZDF rats; type: in vivo, rat; conditions: oral glucose load 2 g/kg 30 min later
Procedure: According to a first example an oral glucose tolerance test is performed in overnight fasted 9-weeks old male Zucker Diabetic Fatty (ZDF) rats (ZDF/Crl-Lepr^fa). A pre-dose blood sample is obtained by tail bleed. Blood glucose is measured with a glucometer, and the animals are randomized for blood glucose (n=5/group). Subsequently, the groups receive a single oral administration of either vehicle alone (0.5% aqueous hydroxyethylcellulose containing 3 mM HCl and 0.015% Polysorbat 80) or vehicle containing the SGLT2 inhibitor. The animals receive an oral glucose load (2 g/kg) 30 min after compound administration. Blood glucose is measured in tail blood 30 min, 60 min, 90 min, 120 min, and 180 min after the glucose challenge. Glucose excursion is quantified by calculating the reactive glucose AUC. The data are presented as mean±SEM. The two-sided unpaired Student t-test is used for statistical comparison of the control group and the active groups.
Compound (I.9) (1-chloro-4-(β-D-glucopyranos-1-yl)-2-[4-((S)-tetrahydrofuran-3-yloxy)-benzyl]-benzene) was orally administered to ZDF rats at doses of 0.3 mg/kg, 3 mg/kg or 30 mg/kg body weight. Compound (I.9) reduced glucose excursion by 15% at 0.3 mg/kg (not significant), by 62% at 3 mg/kg (p<0.001) and by 89% at 30 mg/kg (p<0.001).

[6] = system: HbA1c; conditions: metformin on its own, in the diabetic; cited from earlier work

X10 (particle size, volume distribution) [1]: 1.7 μm
X50 (particle size, volume distribution) [1]: 12.1 μm
X90 (particle size, volume distribution) [1]: 25.9 μm
SMILES: OC[C@H]1O[C@@H](c2ccc(Cl)c(Cc3ccc(O[C@H]4CCOC4)cc3)c2)[C@H](O)[C@@H](O)[C@@H]1O [Active substance Batch 2]

X10 (particle size, volume distribution) [1]: 1.8 μm
X50 (particle size, volume distribution) [1]: 18.9 μm
X90 (particle size, volume distribution) [1]: 45.3 μm
SMILES: OC[C@H]1O[C@@H](c2ccc(Cl)c(Cc3ccc(O[C@H]4CCOC4)cc3)c2)[C@H](O)[C@@H](O)[C@@H]1O [Active substance Batch 1]

SMILES: OC[C@H]1O[C@@H](c2ccc(Cl)c(Cc3ccc(O[C@H]4CCOC4)cc3)c2)[C@H](O)[C@@H](O)[C@@H]1O [Compound (I.9), 1-chloro-4-(β-D-glucopyranos-1-yl)-2-[4-((S)-tetrahydrofuran-3-yloxy)-benzyl]-benzene]
total body fat content (weight per rat) in comparison to vehicle-treated animals [2]: significantly lower
reduction of body weight versus vehicle control ([3]; 3 mg/kg orally once daily): 4.1%
reduction of body weight versus vehicle control ([3]; 10 mg/kg orally once daily, significant (p<0.05)): 6.9%
serum uric acid level, baseline ([4]; 5 mg daily group): 5.5 mg/dL
serum uric acid level, 12 weeks ([4]; 5 mg daily): 5.0 mg/dL
serum uric acid level, baseline ([4]; 10 mg daily group): 5.3 mg/dL
serum uric acid level, 12 weeks ([4]; 10 mg daily): 4.7 mg/dL
serum uric acid level, baseline ([4]; 25 mg daily group): 5.4 mg/dL
serum uric acid level, 12 weeks ([4]; 25 mg daily): 4.7 mg/dL
reduction in serum uric acid levels compared to baseline ([4]; all doses (5 mg, 10 mg, 25 mg daily), 12 weeks): 0.5 to 0.7 mg/dL
reduction of glucose excursion (reactive glucose AUC) ([5]; single oral dose 0.3 mg/kg, not significant): 15%
reduction of glucose excursion (reactive glucose AUC) ([5]; single oral dose 3 mg/kg, p<0.001): 62%
reduction of glucose excursion (reactive glucose AUC) ([5]; single oral dose 30 mg/kg, p<0.001): 89%

SMILES: CN(C)C(=N)N=C(N)N [Metformin, reference compound]
average improvement in the HbA1c value [6]: 1.0-1.5%
serum uric acid level, baseline ([4]; 2000 mg daily group): 5.6 mg/dL
change of serum uric acid levels compared to baseline ([4]; 2000 mg daily, 12 weeks): increased
serum uric acid level, 12 weeks ([4]; 2000 mg daily): 6.2 mg/dL
